{"source": "patent US11141374B2", "about": "“Natural skin care compositions and methods for treating oxidative stress and restoring skin health” (CODEX BEAUTY CORPORATION, priority 2019, dated 2021)", "tested_on": "normal human-derived epidermal keratinocytes", "test": "in-vitro thymidine dimer assay after UVB, epidermis skin model", "assay_type": "cell-based", "conditions": "7 days treatment, UVB 300 mJ/cm^2; Trolox 50 ug/ml, Aristotelia chilensis 5%, Ugni molinae 4%", "method": "Leaf extracts Aristotelia chilensis and Ugni molinae were evaluated to determine their ability to prevent undesirable thymidine dimer formation upon exposure to UVB radiation. When skin is exposed to UVB radiation, thymidine bases in the DNA can absorb the UVB radiation to form thymidine dimers (also known as thymine dimers) in DNA, complicating the cell's efforts to replicate DNA and to properly function. In this experiment, an in-vitro thymidine dimer assay was performed using a skin model consisting of normal human-derived epidermal keratinocytes cultured to form a multilayered model of the human epidermis. […] The primary antibody was then detected with a secondary antibody conjugated to a fluorescent dye. The membrane was then scanned with an excitation laser and emission filter combo specific to the fluorescent dye, so that the fluorescence intensity of each sample was proportional to the amount of thymidine dimers present in the sample and a lower fluorescence intensity advantageously indicates lower levels of cellular damage from UVB radiation. The results of the thymidine dimer assay are found in Table 1, below, expressed as mean Relative Fluorescence Units (RFU)±standard deviation."}
{"smiles": "Cc1c(C)c2c(c(C)c1O)CCC(C)(C(=O)O)O2", "note": "(stereo not shown) [Trolox]", "values": [{"measurement": "Corrected RFU (thymidine dimers), mean ± standard deviation", "value": "4.380 ± 393.00", "unit": "RFU"}]}
